The target of one test is T1, human orexin-2 receptor (Homo sapiens, UniProt O43614).
T1 construct: expressed in transfected cells; host or cells: CHO cells (membranes)
T1 sequence (O43614 1-444): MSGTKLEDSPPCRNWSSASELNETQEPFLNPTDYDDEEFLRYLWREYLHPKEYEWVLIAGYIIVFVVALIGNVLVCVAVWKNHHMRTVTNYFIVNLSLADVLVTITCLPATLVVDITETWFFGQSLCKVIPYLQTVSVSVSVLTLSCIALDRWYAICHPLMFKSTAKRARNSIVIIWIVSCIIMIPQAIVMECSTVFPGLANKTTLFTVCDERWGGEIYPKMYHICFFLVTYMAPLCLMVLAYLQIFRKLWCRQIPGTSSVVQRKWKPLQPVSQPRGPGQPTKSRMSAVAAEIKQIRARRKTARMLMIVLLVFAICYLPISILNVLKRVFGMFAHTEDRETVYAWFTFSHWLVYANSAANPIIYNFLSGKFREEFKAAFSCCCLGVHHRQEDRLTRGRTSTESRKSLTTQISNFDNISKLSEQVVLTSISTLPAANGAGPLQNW
Description: radioligand binding assay, OX2 receptor (hOX2 Bind hKi). The settings on record: membranes from CHO cells expressing the OX2 receptor. The protocol:
The utility of the compounds in accordance with the present invention as orexin receptor OX1R and/or OX2R antagonists may be readily determined without undue experimentation by methodology well known in the art, including the “FLIPR Ca^2+ Flux Assay” (Okumura et al., Biochem. Biophys. Res. Comm. 280:976-981, 2001). In a typical experiment the OX1 and OX2 receptor antagonistic activity of the compounds of the present invention was determined in accordance with the following experimental method. For intracellular calcium measurements, Chinese hamster ovary (CHO) cells expressing the rat orexin-1 receptor or the human orexin-2 receptor, are grown in Iscove's modified DMEM containing 2 mM L-glutamine, […], 1% hypoxanthine-thymidine supplement, 100 U/ml penicillin, 100 μg/ml streptomycin and 10% heat-inactivated fetal calf serum (FCS). The cells are seeded at 20,000 cells/well into Becton-Dickinson black 384-well clear bottom sterile plates coated with poly-D-lysine. All reagents were from GIBCO-Invitrogen Corp. The seeded plates are incubated overnight at 37° C. and 5% CO2. Ala-6,12 human orexin-A as the agonist is prepared as a 1 mM stock solution in 1% bovine serum albumin (BSA) and diluted in assay buffer (HBSS containing 20 mM HEPES, 0.1% BSA and 2.5 mM probenecid, pH7.4) for use in the assay at a final concentration of 70 pM. Test compounds are prepared as 10 mM stock solution in DMSO, then diluted in 384-well plates, first in DMSO, then assay buffer. On the day of the assay, cells are washed 3 times with 100 μl assay buffer and then incubated for 60 min (37° C., 5% CO2) in 60 μl assay buffer containing 1 μM Fluo-4AM ester, 0.02% pluronic acid, and 1% BSA. The dye loading solution is then aspirated and cells are washed 3 times with 100 μl assay buffer. 30 μl of that same buffer is left in each well. Within the Fluorescent Imaging Plate Reader (FLIPR, Molecular Devices), test compounds are added to the plate in a volume of 25 μl, incubated for 5 min and finally 25 μl of agonist is added. Fluorescence is measured for each well at 1 second intervals for 5 minutes and the height of each fluorescence peak is compared to the height of the fluorescence peak induced by […] Ala-6,12 orexin-A with buffer in place of antagonist. For each antagonist, IC50 value (the concentration of compound needed to inhibit 50% of the agonist response) is determined. Alternatively, compound potency can be assessed by a radioligand binding assay (described in Bergman et. al. Bioorg. Med. Chem. Lett. 2008, 18, 1425-1430) in which the inhibition constant (Ki) is determined in membranes prepared from CHO cells expressing either the OX1 or OX2 receptor. The intrinsic orexin receptor antagonist activity of a compound which may be used in the present invention may be determined by these assays. The following tables show representative data for the compounds of the Examples as orexin receptor antagonists as determined by the foregoing assays wherein the hOX2 Ki is a measure of the ability of the test compound to inhibit the action of the human orexin-2 receptor and the hOX1R is a measure of the ability of the test compound to inhibit the action of the rat orexin-1 receptor.

In the next test the target is T2, hOX1 (orexin-1 receptor) (Homo sapiens, UniProt O43613).
T2 construct: expressed in transfected cells; host or cells: CHO cells (membranes)
T2 sequence (O43613 1-425): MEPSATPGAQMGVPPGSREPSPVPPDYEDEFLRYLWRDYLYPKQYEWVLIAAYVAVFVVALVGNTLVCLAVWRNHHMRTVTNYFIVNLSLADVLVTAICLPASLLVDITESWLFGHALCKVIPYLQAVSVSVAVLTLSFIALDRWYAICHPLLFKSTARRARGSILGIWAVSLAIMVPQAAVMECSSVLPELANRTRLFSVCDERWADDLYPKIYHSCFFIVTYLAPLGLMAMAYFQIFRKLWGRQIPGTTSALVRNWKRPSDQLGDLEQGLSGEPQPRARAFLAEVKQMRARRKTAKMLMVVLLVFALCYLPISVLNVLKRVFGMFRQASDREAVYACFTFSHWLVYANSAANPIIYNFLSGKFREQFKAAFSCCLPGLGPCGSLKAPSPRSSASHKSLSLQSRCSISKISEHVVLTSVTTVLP
The test can be described thus: radioligand binding assay, OX1 receptor (hOX1 Bind hKi). The settings on record: membranes from CHO cells expressing the OX1 receptor.

In the case of `Cc1nc(C(=O)N2CCCCC2C#Cc2ccc(F)cn2)c(-c2ccccc2)s1` (stereo not shown) [Example 22, 5-fluoro-2-({1-[(2-methyl-5-phenyl-1,3-thiazol-4-yl)carbonyl]piperidin-2-yl}ethynyl)pyridine], the Ki on human orexin-2 receptor was above 2300 nM; at hOX1 (orexin-1 receptor), above 2710 nM.
The like results for `Cc1nc(C(=O)N2CCCCC2C#Cc2ccc(F)cc2)c(-c2ccccc2)s1` (stereo not shown) [Example 23, 2-[(4-fluorophenyl)ethynyl]-1-[(2-methyl-5-phenyl-1,3-thiazol-4-yl)carbonyl]piperidine] were, in that order, 721 nM and 186 nM.
For `Cc1nc(C(=O)N2CCCCC2C#Cc2ccc3ccccc3n2)c(-c2ccccc2)s1` (stereo not shown) [Example 24, 2-({1-[(2-methyl-5-phenyl-1,3-thiazol-4-yl)carbonyl]piperidin-2-yl}ethynyl)quinoline], in that order: above 754 nM and 233 nM.
Consider `Cc1nc(C(=O)N2CCCCC2C#Cc2cc3ccccc3cn2)c(-c2ccccc2)s1` (stereo not shown) [Example 25, 3-({1-[(2-methyl-5-phenyl-1,3-thiazol-4-yl)carbonyl]piperidin-2-yl}ethynyl)isoquinoline], for which the results for the Ki at human orexin-2 receptor and on hOX1 (orexin-1 receptor) were above 100 nM and above 364 nM, respectively.
For `Cc1nc(C(=O)N2CCCCC2C#Cc2cnc3ccccc3c2)c(-c2ccccc2)s1` (stereo not shown) [Example 26, 3-({1-[(2-methyl-5-phenyl-1,3-thiazol-4-yl)carbonyl]piperidin-2-yl}ethynyl)quinoline], the values for the Ki on human orexin-2 receptor and on hOX1 (orexin-1 receptor) were above 6120 nM and above 1600 nM, respectively.
